Results taken from PMC6746264, “Novel tyrosinase inhibitory peptide with free radical scavenging ability” (Journal of Enzyme Inhibition and Medicinal Chemistry, 2019).
Entries after “also recorded” stand apart in the source; their conditions may differ. No end group written: not given here.

Experiments:
[1] = cited from earlier work
Source text: However, the adverse side effects associated with their use have led to restrictions in their applications.

[2] = tested on: human melanoma cell line (A375); assay: Intracellular tyrosinase activity inhibition assay (melanin production); format: cell-based; details: A375 cells, 60 h, N = 3
Description: (§1) A human melanoma cell line (A375) was provided by the Stem Cell Bank, Chinese Academy of Sciences. The A375 cell line was cultured in DMEM media containing 10% fetal bovine serum and 1% penicillin/streptomycin in an incubator at 37 °C and an atmosphere containing 5% CO2[32].
The A375 cells were seeded at a density of 1 × 10^5 cells/well in a 6-well plate and cultured for 12 h. […] After adding 0.5 ml NaOH (1 M), the cells were disrupted by sonication, and incubated at 50 °C for 10 min.

tyrosinase = assay: CD spectroscopy; format: binding, mushroom; details: 200–260 nm, 293.15 K, mixture with tyrosinase, 0.2 mg/ml
Description: The CD measurements were performed at 293.15 K with a bandwidth, step interval and scanning speed of 1.0 nm, 1 nm, and 50 nm min^−1, respectively.
Figure 4.

mushroom tyrosinase = mushroom tyrosinase (Agaricus bisporus, UniProt C7FF04); assay: Comparison of tyrosinase inhibition rate (maximum reaction rate, IC50); format: biochemical
Chain of mushroom tyrosinase (C7FF04 1-392): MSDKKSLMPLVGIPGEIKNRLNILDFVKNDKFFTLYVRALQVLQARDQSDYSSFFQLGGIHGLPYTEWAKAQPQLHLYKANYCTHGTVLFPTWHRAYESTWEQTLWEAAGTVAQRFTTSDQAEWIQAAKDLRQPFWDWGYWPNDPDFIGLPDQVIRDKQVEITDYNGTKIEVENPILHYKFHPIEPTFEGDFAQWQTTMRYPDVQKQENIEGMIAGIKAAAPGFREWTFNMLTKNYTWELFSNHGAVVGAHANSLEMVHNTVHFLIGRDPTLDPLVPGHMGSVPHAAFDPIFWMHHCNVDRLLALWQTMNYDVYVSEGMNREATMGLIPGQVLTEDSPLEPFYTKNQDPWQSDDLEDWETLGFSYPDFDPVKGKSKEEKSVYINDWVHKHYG
Description: Figure 2. […] (D) The plot of the percentage of enzyme activity (Vss) vs the […] concentration [I]. IC50 of the inhibitors were directly obtained from the plots.
Before conducting the experiment, all the solutions, 96-well plates, and tips were heated at 37 °C. Equal volumes of tyrosine solutions (final concentration of 2.5 mM) were added to the 96-well plates, mixed with different concentrations of the inhibitors mentioned above and incubated for 10 min at 37 °C. Then, equal volume of the tyrosinase solution (100 U per well) was added to the 96-well plate using a multichannel pipette, which was placed immediately in a microplate reader under shaking conditions for 30 s. Finally, the light absorbance value at 475 nm was recorded at 37 °C continuously for 2 h with intervals of 20 s. The maximum reaction rate of tyrosinase at each concentration of the inhibitor was calculated.

A375 cells = assay: MTT assay (cell viability); format: cell-based, human; details: 24 h, inhibitors 2.5 mM in PBS, absorbance 492 nm
Description: as §1
The A375 cells were seeded at a density of 1 × 10^4 cells per well in a 96-well plate. They were incubated for 24 h at 37 °C under an atmosphere containing 5% CO2. Then, different tyrosinase inhibitors were added into the culture media. After incubation for 24 h, the cell viability was measured using the MTT assay, which was based on the conversion of MTT to formazan crystals by mitochondrial dehydrogenases. Briefly, the cell cultures were incubated with a 20 µl MTT solution (5 mg/mL) for 4 h at 37 °C. The culture supernatant was carefully removed from the well, and 150 µl DMSO was added followed by shaking for 10 min to dissolve the formazan crystals. Absorbance at 492 nm was measured using a microplate reader (VersaMax Microplate Reader)[35]. Cell viability of the control group in which […] was replaced by PBS was defined as 100%[36].

A375 melanoma cells = assay: Number of proliferated melanoma cells; format: cell-based, human
Description: Fig. S3. The OD values at 475 nm of the solutions shown in Fig. 1A after storage for 12 months. Error
Fig. S4. Total number of proliferated melanoma cells in the presence of different tyrosinase inhibitors.
The concentration of each inhibitor is 2.5 mM. Error bars represent S.D. N=3. […]

[3] = 1 mM, comparison among arbutin, glutathione and EF-5

Oc1ccc(O)cc1 [hydroquinone]
contact dermatitis / exogenous ochronosis [1]: exogenous ochronosis

glutathione
melanin inhibitory effect [2, 3]: the melanin inhibitory effects of arbutin and glutathione were similar
change of CD spectrum of tyrosinase (tyrosinase): does not show such changes
lag phase of the catalytic reaction of tyrosinase (mushroom tyrosinase; 475 nm, 37 °C, compared with arbutin): may significantly increase the lag phase

ECGYF [EF-5, ECGYF]
cell viability / toxicity (A375 cells): nontoxic to cells; also recorded: nontoxic to the melanocytes
IC50 relative to IC50 of arbutin (mushroom tyrosinase; EF-5 IC50 as fraction of that of arbutin): about 1/12

O=c1cc(CO)occ1O [kojic acid]
carcinogenicity [1]: has demonstrated carcinogenicity

OC[C@H]1O[C@@H](Oc2ccc(O)cc2)[C@H](O)[C@@H](O)[C@@H]1O [arbutin]
total concentration of cells (A375 melanoma cells; A375, arbutin 5 mM group versus EF-5 0.5 mM group): much lesser than that in the EF-5 (0.5 mM) group
inhibition of cell proliferation (A375 melanoma cells; A375 melanoma cells, 2.5 mM, N=3): inhibit proliferation of the cells
cell viability / toxicity (A375 cells): the inhibitory effect of arbutin on the viability of melanoma cells is significant
melanin inhibitory effect [2, 3]: the melanin inhibitory effects of arbutin and glutathione were similar
melanin inhibitory effect ([2]; arbutin 5 mM compared with EF-5 0.5 mM): similar
contact dermatitis / exogenous ochronosis [1]: contact dermatitis
